The assay has as its target human Nav1.7 (Homo sapiens (Human), UniProt Q15858). Kind of assay: FLIPR or FLIPR TETRA sodium dye assay with KCl and test article pre-incubation. It is filed as cell-based. As to conditions: read-out: Nav1.7 Activity (μM) FLIPR assay IC50 (μM) ± SEM.
Where [1] appears, read: recombinant HEK293 cells expressing human Nav1.7 alpha subunit, CoroNa Green sodium dye, veratridine and scorpion venom as agonists.

The results in this text go back to US9340504B2, “Pyridine and piperidine derivatives as novel sodium channel blockers” (priority 2013, dated 2016).

Structures are written as SMILES. Where two headings read alike, the source gives them in different places.

Sequence of human Nav1.7 (Q15858 with tags, fused parts or gaps limits assumed): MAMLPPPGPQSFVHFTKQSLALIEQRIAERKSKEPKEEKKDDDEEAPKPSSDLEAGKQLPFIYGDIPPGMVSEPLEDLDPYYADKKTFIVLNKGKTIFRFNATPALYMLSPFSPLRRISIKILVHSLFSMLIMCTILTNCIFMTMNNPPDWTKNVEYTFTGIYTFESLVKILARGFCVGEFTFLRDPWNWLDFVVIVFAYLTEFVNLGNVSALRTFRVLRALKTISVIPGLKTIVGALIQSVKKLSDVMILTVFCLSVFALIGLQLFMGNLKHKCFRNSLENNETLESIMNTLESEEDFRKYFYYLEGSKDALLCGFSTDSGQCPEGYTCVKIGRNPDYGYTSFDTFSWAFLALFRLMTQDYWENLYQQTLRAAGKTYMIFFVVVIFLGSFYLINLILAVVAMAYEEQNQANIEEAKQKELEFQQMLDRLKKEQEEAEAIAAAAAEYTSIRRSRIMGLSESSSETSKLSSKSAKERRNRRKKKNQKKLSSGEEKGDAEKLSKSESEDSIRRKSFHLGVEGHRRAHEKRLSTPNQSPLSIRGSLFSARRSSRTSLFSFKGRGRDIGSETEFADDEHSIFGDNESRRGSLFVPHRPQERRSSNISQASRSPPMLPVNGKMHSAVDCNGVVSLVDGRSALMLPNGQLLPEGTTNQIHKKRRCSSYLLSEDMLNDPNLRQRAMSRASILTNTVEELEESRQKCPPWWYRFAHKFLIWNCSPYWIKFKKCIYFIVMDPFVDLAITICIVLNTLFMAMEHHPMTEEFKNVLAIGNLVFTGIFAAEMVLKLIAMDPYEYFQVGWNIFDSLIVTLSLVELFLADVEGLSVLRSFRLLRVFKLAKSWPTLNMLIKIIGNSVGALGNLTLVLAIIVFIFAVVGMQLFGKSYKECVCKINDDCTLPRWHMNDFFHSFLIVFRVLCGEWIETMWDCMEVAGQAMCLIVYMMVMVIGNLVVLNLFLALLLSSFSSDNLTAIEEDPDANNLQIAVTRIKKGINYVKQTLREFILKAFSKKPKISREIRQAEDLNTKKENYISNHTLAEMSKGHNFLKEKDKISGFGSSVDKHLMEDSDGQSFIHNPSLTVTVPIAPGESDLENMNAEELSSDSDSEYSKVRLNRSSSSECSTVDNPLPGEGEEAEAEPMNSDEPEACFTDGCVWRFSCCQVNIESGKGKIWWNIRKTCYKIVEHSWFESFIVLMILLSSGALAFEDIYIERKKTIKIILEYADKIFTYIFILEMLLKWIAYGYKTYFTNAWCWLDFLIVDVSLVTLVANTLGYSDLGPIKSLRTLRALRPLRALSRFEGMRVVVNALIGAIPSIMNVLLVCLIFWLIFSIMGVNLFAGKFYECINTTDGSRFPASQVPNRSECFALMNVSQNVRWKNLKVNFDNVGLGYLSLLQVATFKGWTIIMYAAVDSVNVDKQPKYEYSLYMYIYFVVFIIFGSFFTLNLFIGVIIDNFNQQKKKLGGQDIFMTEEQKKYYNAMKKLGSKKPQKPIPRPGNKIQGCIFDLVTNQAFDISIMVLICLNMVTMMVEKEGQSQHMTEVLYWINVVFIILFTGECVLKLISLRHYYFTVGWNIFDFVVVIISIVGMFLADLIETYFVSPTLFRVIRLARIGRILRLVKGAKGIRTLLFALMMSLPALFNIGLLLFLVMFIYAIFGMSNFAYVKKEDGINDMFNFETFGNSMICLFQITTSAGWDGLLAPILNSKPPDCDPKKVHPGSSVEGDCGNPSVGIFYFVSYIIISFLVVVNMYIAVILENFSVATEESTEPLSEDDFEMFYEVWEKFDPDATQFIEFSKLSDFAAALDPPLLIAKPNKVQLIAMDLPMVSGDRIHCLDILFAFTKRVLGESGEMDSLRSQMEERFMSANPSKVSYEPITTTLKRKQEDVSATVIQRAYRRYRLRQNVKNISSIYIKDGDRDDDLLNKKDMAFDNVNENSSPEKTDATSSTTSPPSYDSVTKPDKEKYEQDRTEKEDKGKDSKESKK

As to `Oc1ccccc1Cc1cccc(-c2ccc(OCC(F)(F)F)nc2)n1` [Compound 8, 2-((6′-(2,2,2-trifluoroethoxy)-[2,3′-bipyridin]-6-yl)methyl)phenol], under setting [1], the IC50 is more than 20 µM.
As for `CSc1ncc(-c2ccccc2Cc2cccc(-c3ccc(OCC(F)(F)F)nc3)n2)cn1` [Compound 14, 6-(2-(2-(methylthio)pyrimidin-5-yl)benzyl)-6′-(2,2,2-trifluoroethoxy)-2,3′-bipyridine], under setting [1], the half-maximal inhibitory concentration (IC50) stood at 0.947 ± 0.06 µM.
On the same count and under the same terms, under `COc1ncccc1-c1ccccc1Cc1cccc(-c2ccc(OCC(F)(F)F)nc2)n1` [Compound 11, 6-(2-(2-methoxypyridin-3-yl)benzyl)-6′-(2,2,2-trifluoroethoxy)-2,3′-bipyridine] stands more than 20 µM; under `Fc1ccc(-c2ccccc2Cc2cccc(-c3ccc(OCC(F)(F)F)nc3)n2)cn1` [Compound 12, 6-(2-(6-fluoropyridin-3-yl)benzyl)-6′-(2,2,2-trifluoroethoxy)-2,3′-bipyridine], more than 20 µM.
On the same count and under the same terms, the same measure for `CN(C)c1ncc(-c2ccccc2Cc2cccc(-c3ccc(OCC(F)(F)F)nc3)n2)cn1` [Compound 15, N,N-dimethyl-5-(2-((6′-(2,2,2-trifluoroethoxy)-[2,3′-bipyridin]-6-yl)methyl)phenyl)pyrimidin-2-amine]: 0.34 ± 0.012 µM.
Regarding `COc1ncc(-c2ccccc2Cc2cccc(-c3ccc(OCC(F)(F)F)nc3)n2)cn1` [Compound 13, 6-(2-(2-methoxypyrimidin-5-yl)benzyl)-6′-(2,2,2-trifluoroethoxy)-2,3′-bipyridine], the IC50 was 0.849 ± 0.069 µM.

Broadly, the IC50 is the concentration that inhibits the measured activity by half.
